Laboratory results from patent publication US20180264080A1, “TOPICAL APPLICATIONS OF Kv1.3 CHANNEL BLOCKING PEPTIDES TO TREAT SKIN INFLAMMATION” (KINETA ONE, LLC, priority 2015, published 2018).

Test: Tissue penetration of topically applied peptide by immunohistochemistry (anti-ShK mAb P3B3) in rat pinna
Format: in vivo
Conditions: 10 doses, rat pinna sections 48 hours post-challenge (DTH study)
Text: This example describes the method of detection of toxin-based therapeutic peptides of the disclosure, such as ShK-186 (SEQ ID NO:217) or ShK-198 (SEQ ID NO:210) penetration after topical administration.
Materials: All Bond reagents such Bond HIER 1 (Citrate), Bond HIER 2 (EDTA), Bond Primary antibody diluent, Bond dewax solution, Bond Wash solution, Bond Polymer Refine (DAB) detection rack including peroxide block, polymer/hematoxylin, Bond Alcohol and the Leica Bond Automated Immunostainer were purchased from Leica-microsystems.
ShK specific antibody: Hybridoma fusions were performed using the isolated splenocytes from ShK-186 immunized mice and clones producing specific monoclonal antibodies against ShK-186 and ShK-198 were isolated. These cultures were subjected to a second cloning process using the limited dilution method and selected for stable expression of the specific mAb. Stable clones were expanded, tested for antibody specificity to ShK-186 (and ShK parent) by ELISA, and their isotypes were identified using the Roche Isostrips and confirmed by ELISA. For ELISA testing, culture supernatants were diluted from 1:4-1:256 and the titer was determined to be the last dilution 2 standard deviations above background. Clone P3B3-G11-C12 is purified from hybridoma extinction cultures and concentrated to 1 mg/ml. […]

(L-PhosphoTyr)-AEEAc-RSCIDTIPKSRCTAFQCKHSMKYRLSFCRKTCGTC-amide [ShK-186]
Tissue penetration of the peptide into rat pinna (dark staining with ShK specific monoclonal antibody P3B3) (1% solution of ShK-186, topical): perfuse and extensive penetration

(L-Tyr)-AEEAc-RSCIDTIPKSRCTAFQCKHSMKYRLSFCRKTCGTC-amide [ShK-198]
Tissue penetration of the peptide into rat pinna (dark staining with ShK specific monoclonal antibody P3B3) (5% solution of ShK-198, topical): perfuse and extensive penetration
